Data: patent US20260373183A1, “ANTIBIOTIC-RESISTANT ARTIFICIAL NUCLEOSIDE, COMPOSITION AND METHOD” (priority 2022, published 2026)

Assays:
[1] = tested on: Pseudomonas aeruginosa strains (VIM-2, SPM-1, IMP-1, OXA-50, ATCC 27853, PA01); test: checkerboard MIC experiments, 5-NIdR combined with aztreonam/avibactam; format: cell-based
Method: 5-NIdR alone was not active, displaying individual MICs>512 μg/ml against these strains.

bacterial persisters = test: fluorescence and SEM of bacterial persisters treated with aztreonam/avibactam with or without 5-NIdR (FIG. 5); format: cell-based
Description: First, the artificial nucleoside inhibits TLS activity in response to ROS generated by β-lactams, and this serves to enhance the cytotoxicity of this class of antibiotics. […] These two features represent a novel approach to attack drug-resistant bacteria.

O=[N+]([O-])c1ccc2c(ccn2[C@H]2C[C@H](O)[C@@H](CO)O2)c1 [5-NIdR, 5-nitro-indolyl-2′-deoxynucleoside]
activity of 5-NIdR alone ([1]; 5-NIdR alone, against these strains): not active
fold reduction in the MICs for aztreonam/avibactam ([1]; 5-NIdR combined with aztreonam/avibactam, 5-NIdR concentrations as low as 0.5 μg/ml, all strains listed): > 10 -fold
MIC ([1]; Pseudomonas aeruginosa, ATCC27853, read-out: minimal inhibitory concentrations (MICs)): > 512 mg/L
lowest 5-NIdR concentration required to achieve a >10-fold reduction in the MICs for aztreonam/avibactam ([1]; combined with β-lactams (aztreonam/avibactam), all Pseudomonas aeruginosa strains listed): 0.5 μg/ml
cell-killing effects in checkerboard analysis ([1]; combining 5-NIdR with aztreonam/avibactam in drug-resistant bacteria (FIG. 3A-F)): synergistic cell-killing effects
inhibitory activity in checkerboard experiments ([1]; variable concentrations of 5-NIdR combined with variable concentrations of aztreonam/avibactam): excellent inhibitory activity
influence on formation of persisters induced by antibiotic treatment (bacterial persisters; 5-NIdR added to aztreonam/avibactam, panel d): does not appear to influence formation of persisters
viability of filamentous persisters (bacterial persisters; 5-NIdR combined with aztreonam/avibactam): adversely affects the viability of filamentous persisters
morphology of persisters (fluorescence and SEM) (bacterial persisters; 5-NIdR combined with aztreonam/avibactam, panels d, e): formation of “ghost” apoptotic saccules which represent non-viable persisters that do not undergo reversion
